{"source": "paper PMC5560734", "about": "“Diflunisal inhibits prestin by chloride-dependent mechanism” (PLoS ONE, 2017)", "molecular_target": "T1, prestin (SLC26A5) (Mus musculus, UniProt Q99NH7)", "T1 construct": "endogenous prestin in isolated C57BL/6 mouse outer hair cells", "T1 sequence (Q99NH7 1-744)": "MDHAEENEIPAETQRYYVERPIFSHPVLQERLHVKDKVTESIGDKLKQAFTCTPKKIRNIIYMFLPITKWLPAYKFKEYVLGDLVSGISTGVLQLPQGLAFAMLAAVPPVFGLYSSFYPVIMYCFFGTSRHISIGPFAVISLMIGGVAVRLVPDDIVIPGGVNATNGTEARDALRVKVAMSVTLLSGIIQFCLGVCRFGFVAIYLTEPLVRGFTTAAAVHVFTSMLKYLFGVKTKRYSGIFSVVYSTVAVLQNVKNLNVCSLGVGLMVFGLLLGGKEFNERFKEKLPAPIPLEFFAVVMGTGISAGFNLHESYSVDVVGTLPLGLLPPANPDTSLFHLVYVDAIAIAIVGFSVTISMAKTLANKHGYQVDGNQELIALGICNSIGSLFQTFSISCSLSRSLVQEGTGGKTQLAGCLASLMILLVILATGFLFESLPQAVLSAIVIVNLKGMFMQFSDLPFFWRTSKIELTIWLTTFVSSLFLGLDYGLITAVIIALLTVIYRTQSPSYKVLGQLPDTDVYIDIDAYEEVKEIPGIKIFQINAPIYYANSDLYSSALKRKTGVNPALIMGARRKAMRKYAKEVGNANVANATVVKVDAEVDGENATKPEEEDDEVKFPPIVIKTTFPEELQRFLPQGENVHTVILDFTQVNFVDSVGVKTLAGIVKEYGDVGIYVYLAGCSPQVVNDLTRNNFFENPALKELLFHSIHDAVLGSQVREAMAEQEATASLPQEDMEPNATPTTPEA", "test": "whole-cell patch clamp of outer hair cells, non-linear capacitance / charge transfer (Qmax) at […] intracellular chloride", "assay_type": "cell-based", "data": [{"molecule": "O=C(O)c1cc(-c2ccc(F)cc2F)ccc1O", "note": "[DFL, diflunisal]", "values": [{"measurement": "IC50", "value": 98, "unit": "µM"}]}]}
